Results as given in ChEMBL document CHEMBL3351941, “Synthesis and antiprotozoal activity of oligomethylene- and p-phenylene-bis(methylene)-linked bis(+)-huprines” (Bioorg Med Chem Lett, 2014).

Legend:
Trypanosoma brucei = assay: Trypanocidal activity against bloodstream forms of Trypanosoma brucei 221 assessed as growth inhibition after 48 hrs by resazurin assay; format: functional, organism-based; settings: Trypanosoma brucei, 221, 48 h
L6 = assay: Cytotoxicity against rat L6 cells after 6 days by resazurin assay; format: cell-based; settings: L6, 144 h
[1] = Selectivity index, ratio of IC50 for rat L6 cells to IC50 for bloodstream forms of Trypanosoma brucei 221; format: toxicity, cell-based; settings: L6 cells versus bloodstream forms of Trypanosoma brucei 221, read-out: Ratio IC50
Acetylcholinesterase = Acetylcholinesterase (Homo sapiens, UniProt P22303); assay: Inhibition of human recombinant AChE using acetylthiocholine iodide as substrate preincubated for 20 mins by Ellman method
[2] = Effective permeability of the compound by PAMPA assay; format: ADME; settings: read-out: Peff
Plasmodium falciparum = assay: Antiplamodial activity against chloroquine-resistant bloodstream forms of Plasmodium falciparum K1 infected in human A+ erythrocytes assessed as growth inhibition after 48 hrs by spectrophotometry; format: functional, organism-based; settings: K1, 48 h

Acetylcholinesterase, sequence (P22303 whole entry): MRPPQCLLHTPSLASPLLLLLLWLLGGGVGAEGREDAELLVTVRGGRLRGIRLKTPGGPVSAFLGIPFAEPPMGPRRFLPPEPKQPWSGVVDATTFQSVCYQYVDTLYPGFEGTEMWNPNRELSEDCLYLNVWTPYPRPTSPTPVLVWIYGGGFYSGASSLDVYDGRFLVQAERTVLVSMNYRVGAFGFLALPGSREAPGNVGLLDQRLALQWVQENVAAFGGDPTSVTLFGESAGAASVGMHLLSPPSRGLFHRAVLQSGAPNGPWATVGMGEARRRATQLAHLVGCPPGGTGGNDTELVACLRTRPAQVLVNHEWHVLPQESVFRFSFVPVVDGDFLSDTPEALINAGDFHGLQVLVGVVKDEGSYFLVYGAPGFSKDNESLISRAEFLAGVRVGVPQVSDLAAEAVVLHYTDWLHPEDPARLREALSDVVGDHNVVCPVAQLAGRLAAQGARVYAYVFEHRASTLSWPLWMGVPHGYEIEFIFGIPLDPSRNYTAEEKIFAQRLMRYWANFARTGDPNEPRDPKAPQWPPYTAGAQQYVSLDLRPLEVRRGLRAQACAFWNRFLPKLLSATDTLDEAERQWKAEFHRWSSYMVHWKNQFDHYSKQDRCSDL

Structure (SMILES): CC1=C[C@H]2Cc3nc4cc(Cl)ccc4c(NCCCCCCNc4c5c(nc6cc(Cl)ccc46)C[C@@H]4C=C(C)C[C@H]5C4)c3[C@@H](C1)C2
- IC50 (Trypanosoma brucei): 890 nM
- IC90 (Trypanosoma brucei): 1090 nM
- IC50 (L6): 1610 nM
- selectivity ratio [1]: 1.8
- IC50 (Acetylcholinesterase): 192 nM
- Papp [2]: 11.1 ×10⁻⁶ cm/s
- IC50 (Plasmodium falciparum): > 6000 nM

Structure (SMILES): CC1=C[C@H]2Cc3nc4cc(Cl)ccc4c(NCCCCCCCCNc4c5c(nc6cc(Cl)ccc46)C[C@@H]4C=C(C)C[C@H]5C4)c3[C@@H](C1)C2
- IC50 (Trypanosoma brucei): 520 nM
- IC90 (Trypanosoma brucei): 740 nM
- IC50 (L6): 4920 nM
- selectivity ratio [1]: 9.5
- IC50 (Acetylcholinesterase): 72.5 nM
- Papp [2]: 13.9 ×10⁻⁶ cm/s
- IC50 (Plasmodium falciparum): > 6000 nM

Structure (SMILES): CC1=C[C@H]2Cc3nc4cc(Cl)ccc4c(NCCCCCCCCCCNc4c5c(nc6cc(Cl)ccc46)C[C@@H]4C=C(C)C[C@H]5C4)c3[C@@H](C1)C2
- IC50 (Trypanosoma brucei): 500 nM
- IC90 (Trypanosoma brucei): 730 nM
- IC50 (L6): 7710 nM
- selectivity ratio [1]: 15.4
- IC50 (Acetylcholinesterase): 17.5 nM
- Papp [2]: 8.7 ×10⁻⁶ cm/s
- IC50 (Plasmodium falciparum): > 6000 nM

Structure (SMILES): CC1=C[C@H]2Cc3nc4cc(Cl)ccc4c(NCCCCCCCCCCCCNc4c5c(nc6cc(Cl)ccc46)C[C@@H]4C=C(C)C[C@H]5C4)c3[C@@H](C1)C2
- IC50 (Trypanosoma brucei): 760 nM
- IC90 (Trypanosoma brucei): 990 nM
- IC50 (L6): 28500 nM
- selectivity ratio [1]: 37.5
- IC50 (Acetylcholinesterase): 431 nM
- Papp [2]: 17.4 ×10⁻⁶ cm/s
- IC50 (Plasmodium falciparum): > 6000 nM

Structure (SMILES): CC1=C[C@H]2Cc3nc4cc(Cl)ccc4c(NCc4ccc(CNc5c6c(nc7cc(Cl)ccc57)C[C@@H]5C=C(C)C[C@H]6C5)cc4)c3[C@@H](C1)C2
- IC50 (Trypanosoma brucei): 570 nM
- IC90 (Trypanosoma brucei): 750 nM
- IC50 (L6): 16100 nM
- selectivity ratio [1]: 28.2
- Papp [2]: 8.3 ×10⁻⁶ cm/s
- IC50 (Plasmodium falciparum): > 6000 nM

Structure (SMILES): C[C@@H]1CC[C@H]2[C@@H](C)C(=O)O[C@@H]3O[C@@]4(C)CC[C@@H]1[C@]32OO4 [ARTEMISININ]
- IC50 (Plasmodium falciparum): 91 nM

Structure (SMILES): CC1=CC2Cc3nc4cc(Cl)ccc4c(N)c3C(C1)C2 (stereo unspecified) [HUPRINE Y]
- IC50 (Plasmodium falciparum): > 10000 nM
